Data reported in patent US20220142991A1, “METHODS AND COMPOSITIONS FOR TREATMENT OF L YSOSOMAL STORAGE DISORDER” (CHILDREN'S HOSPITAL MEDICAL CENTER, priority 2019, published 2022).

Experiments:
4L;C* nBMT mice = assay: FACS analysis of donor-derived GFP+ migrated cells in brain after nBMT; format: in vivo, mouse; conditions: 55 days of age
Description: Briefly, mice that express enhanced green fluorescent protein (GFP; C57BL/6 GFP/CD45.1) were used as bone marrow donors. Low-density bone marrow (LDBM) cells were harvested by flushing the hind-leg bones with Dulbecco's modified Eagle's medium (DMEM) containing 2% fetal calf serum (FCS) and 50 U penicillin/0.05 mg/mL streptomycin using a 23 G needle. The cells were passed through a 100 μm cell strainer. LDBM cells were isolated after density gradient centrifugation with Histopaque-1083. Viable cells were counted with trypan blue dye and resuspended in PBS containing 30 U/mL heparin. The recipient pups (˜3 days old of 4L;C or 4L;norm) were subjected to myelosuppressive conditioning with the chemotherapeutic agent busulfan by intraperitoneal injection at 20 mg/kg. Twenty-four hours later, the 4L;C and 4L;norm recipient pups then received about 1×10^6 GPF+ donor cells via injection into super-facial temple vein (nBMT). 4L;C nBMT mice were then given an i.p. injection of rapamycin or buffer every other days starting at 21 days of age. […] Multicolor FACS analysis was conducted as described above to analyze contribution of GFP+ migrated cells in microglia and subpopulations of leukocytes. FIG. 11A. The frequency of donor-derived GFP+ cells among different leukocyte populations in brain parenchyma was quantified, including CD45^+ cells, microglia, myeloid, lymphoid, macrophage and T cells. Table 1. In busulfan-conditioned mice, engraftment of GFP+ microglial cells was increased in 4L;C* mice compared to 4L normal mice, regardless of treatment with buffer or rapamycin. Table 1. […] FIG. 11B.

4L;C* mice [1] = assay: Relative bodyweight in 4L;C* nGD mouse model; conditions: 6 mg/kg i.p. every 2 days, bodyweight normalized to age 30 days, untreated/buffer Day 52
Description: To assess the effect of rapamycin on nGD, rapamycin (6 mg/kg) was administered to 4L;C* mice by intraperitoneal (i.p.) injection every 2 days starting from 2-weeks of age (4L;C* rapa). […] The lifespan of the mice was monitored daily from 40 days of age until 90 days of age or until death. The Kaplan-Meier method was used to estimate survival probability and a log-rank test was used to compare the Kaplan-Meier survival curves of the four different experimental groups.
Additionally, the bodyweight the mice was measured daily from 20 days of age until 90 days of age or until death. Relative bodyweight curves were normalized by weight value of each animal at the age of 30 days.

4L;C* mice [2] = assay: Lifespan (Kaplan-Meier survival) in 4L;C* nGD mouse model; format: in vivo; conditions: rapamycin 6 mg/kg i.p. every 2 days from 2 weeks of age, untreated 59 days, buffer 60 days
Description: The 4L;C* mouse is a transgenic animal model that is viable and mimics neurological deficits analogous to subacute neuronopathic Gaucher disease (nGD). The 4L;C* mice used in this and other examples disclosed herein were generated as described in Sun et al., Hum Mol Genet. 2010 Mar. 15; 19(6): 1088-1097, the disclosure of which is incorporated herein in its entirety. In brief, saposin C deficient (C^−/−) mice were generated by introducing a Cys→Pro substitution in the saposin C region of prosaposin. […] Saposin C is an essential activator for GCase. GCase V394L (4L/4L) mice were generated by germ-line transmission of a missense point mutation in the GCase (GBA) locus encoding for V394L. Next, saposin C^−/− mice were cross-bred with point mutated GCase V394L homozygotes (4L/4L) to generate 4L/wt;C^−/+ mice. 4L;C* mice (4L/4L;C^−/−) were produced by intercrossing 4L/4L;C^+/− with 4L/4L;C^+/−. The strain background of 4L;C* was originally C57BL/6J/129SvEV and backcrossed into pure C57BL/6J strain for more than 12 generations.

4L;C* mice [3] = assay: FACS analysis of microglia and leukocyte populations in brain; format: in vivo, mouse; conditions: brain hemispheres
Description: Brain inflammation invariably results in a reshaping of the blood-borne leukocyte populations inhabiting the CNS. To elucidate the changes of resident immune cells (i.e., microglial cells) and infiltrated leukocytes in nGD brain and the effect rapamycin has on activation of immune cells and infiltration, flow cytometry was used to analyze different leukocyte populations in brain parenchyma, including CD45^+ cells, microglia, myeloid, lymphoid, macrophage and T cells. […] The hemispheres of the brain were separated, minced, and digested by incubation with […] collagenase IV for 30 min at 37° C. The resulting cell suspensions were then fractionated by density gradient separation using 25% Percoll® gradients at 520×g for 20 minutes. […] After removing myelin and top suspension layer, pelleted cells collected were then subjected to multicolor (5) fluorescence-activated cell sorting analysis (FACS) by co-staining with multiple antibodies that conjugated with various fluorochromes to identify microglia and subpopulations of leukocytes. FIG. 10A. […] FIG. 10B. […] FIG. 10B. […] FIG. 10B.
The frequency of microglia (CD45^intermediateCD11b^high) was increased in buffer-treated 4L;C* mice (1.9 fold) and decreased in rapamycin-treated 4L;C* mice (1.3-fold), which indicates reduced microgliosis in nGD brain. FIG. 10B. […] FIGS. 10C and 10D.

4L;C* mice [4] = assay: Fluoro-Jade C (FJC) staining for degenerating neurons in brain cryosections; conditions: most brain regions, Day 55, vs buffer-treated 4L;C*
Description: To visualize degenerative neurons in nGD mice, brains were harvested from well-perfused rapamycin treated 4L;C* mice, buffer-treated 4L;C* mice, and 4L normal, untreated mice at age of Day 55. Sagittal brain cryosections (10 μm) were mounted on gelatin-coated slides, air-dried, and subjected to FJC staining. The slides were first immersed in a solution containing 1% NaOH in 80% ethanol for 5 minutes. They were rinsed for 2 minutes in 70% ethanol and for 2 minutes in distilled water, then incubated in 0.06% potassium permanganate solution for 10 minutes. Following a water rinse for 2 minutes, slides were transferred to the FJC staining solution and stained for 10 minutes. The proper dilution was accomplished by first making a 0.01% stock solution of FJC dye (Chemicon, Temecula, Calif., USA) in distilled water and then adding 1 ml of the stock solution to 99 ml of 0.1% acetic acid. Slides were washed three times each for 1 minute and then air-dried on a slide warmer at 50° C. for 30 minutes. After clearing in xylene and coverslipping, sections were examined under an epifluorescence microscope.

4L;C* mice [5] = assay: GFAP immunohistochemistry for activated astrocytes in brain; conditions: middle brain, brain stem, Day 55
Description: To visualize reactive astrocytes in nGD mice, immunohistochemistry (IHC) was performed. In brief, brains were harvested from well-perfused rapamycin treated 4L;C* mice, buffer-treated 4L;C* mice, and 4L normal mice at age of Day 55. Sagittal brain cryosections (8 um) were mounted on gelatin-coated slides, air-dried, and subjected to IHC staining using the BenchMark XT IHC/ISH staining module. For GFAP staining, the sections were incubated in buffer solution containing 0.1% trypsin for 5 minutes at room temperature. For morphometric analysis, hematoxylin-eosin co-staining was performed according to standard protocols. Endogenous peroxidase activity was quenched by incubation of the sections for 5 minutes with 3% hydrogen peroxide. Sections were incubated overnight at 4° C. in primary antibodies for GFAP rabbit polyclonal antibody. Staining was detected using biotin-labeled anti-rabbit secondary antibodies and streptavidin conjugated to horseradish peroxidase. Sections were examined with microscope using computer-assisted image analysis software.

4L;C* mice [6] = assay: CD68 immunohistochemistry for activated microglia/macrophage in brain and spinal cord; format: in vivo, mouse
Description: CD68, a classic marker of activated microglia/macrophage (Korzhevskii et al., (2016) Neurosci Behav Physi 46, 284-290), was used to determine CNS inflammation by immunohistochemistry staining. […] FIG. 6A.

inflammatory mediators = assay: RT-qPCR of inflammatory mediator mRNA in midbrain tissue; format: in vivo, mouse
Description: Vitner et al., (2012) Brain. 135 (Pt 6):1724-35; Dasgupta et al., (2015) Hum Mol Genet. 15; 24(24):7031-48. The highly activated microglia/and astrocyte are the main source of multiple inflammatory mediators in brain. […] The isolated mRNA was subjected to quantitative reverse transcription PCR (RT-qPCR) analysis using oligos directed toward inflammatory mediator genes of interest, including cytokine, chemokine, and inflammation-related receptors. Specifically, RT-qPCR analysis was performed to detect mRNA expression levels of the following genes: tumor necrosis factor (TNF)-alpha, interleukin (IL)-1-beta (IL-1β), IL-6, IL-17A, transforming growth factor beta (TGF-β), chemokine ligand (CCL) 5 (CCL5), CCL2, CCL22 chemokine (C-X-C motif) ligand 2 (CXCL2), intercellular adhesion molecule 1 (ICAM1), tumor necrosis factor receptor 1 (TNFR1), Cluster of Differentiation 86 (CD86), EGF-like module-containing mucin-like hormone receptor-like 1 (F4/80), component 5 (C5), and complement component 5a receptor 1 (C5AR1).

CO[C@H]1C[C@@H]2CC[C@@H](C)[C@@](O)(O2)C(=O)C(=O)N2CCCC[C@H]2C(=O)O[C@H]([C@H](C)C[C@@H]2CC[C@@H](O)[C@H](OC)C2)CC(=O)[C@H](C)/C=C(\C)[C@@H](O)[C@@H](OC)C(=O)[C@H](C)C[C@H](C)/C=C/C=C/C=C/1C [rapamycin]
Frequency of GFP+ cells among CD45+ (4L;C* nBMT mice): 2.87
Frequency of GFP+ cells among Lymphoid (4L;C* nBMT mice): 29.3
Frequency of GFP+ cells among Macrophage (4L;C* nBMT mice): 19.5
Frequency of GFP+ cells among Microglia (4L;C* nBMT mice): 1.56
Frequency of GFP+ cells among Myeloid (4L;C* nBMT mice): 17.4
Frequency of GFP+ cells among T Cell (4L;C* nBMT mice): 37.6
starting age for bodyweight to show significant difference from normal controls (4L;norm) (4L;C* mice [1]): 75 days
median survival (4L;C* mice [2]): 82 days
frequency of microglia (CD45intermediate CD11bhigh) (4L;C* mice [3]; buffer-treated 1.9 fold): 1.3 fold
percentage of total CD45+ cells in brain (4L;C* mice [3]; buffer-treated 2.2-): 1.4 fold
reduction of degenerating neuronal signals (FJC) (4L;C* mice [4]): 29-45%
decrease of GFAP signal (4L;C* mice [5]): 36-74%
reduction of CD68+ area (4L;C* mice [6]; all brain regions except cerebellar DCN, Day 55): 53-62%
reduction of CD68 signals (4L;C* mice [6]; spinal cord): 56%
CCL2 mRNA expression (inflammatory mediators; Day 55, buffer-treated 16.6-fold): 9 fold
CCL5 mRNA expression (inflammatory mediators; Day 55, compared to normal littermates, buffer-treated 47-fold): 23 fold
